Reference: patent US8129398B2 (priority 2008, dated 2012)

biological target: T1, HIV-integrase (Human immunodeficiency virus type 1 group M subtype B, UniProt P12497); test: HIV-Integrase Inhibition Activity (SPA bead integration assay with P33 labeled target DNA); assay type: biochemical; conditions: recombinant integrase, class symbols; read-out: in vitro activity
T1 construct: Recombinant integrase (0.26 ng) was incubated with the beads
In short: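 Strand integration read as bead-proximity CPM after P33 target DNA (0.1 fmol) and inhibitor were added to washed integrase–substrate DNA complexes on SPA beads. Enzyme bound 90 min at 37° C; EDTA (10 mM final) terminated reaction; IC50 graded A/B/C.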

Structure (SMILES) | IC50
COC(=O)c1sccc1S(=O)(=O)N1CCN(C(=O)C(=O)NC23CCC(CC2)Cn2c3nc(C(=O)NCc3ccc(F)cc3)c(O)c2=O)CC1 [Example 147, Methyl 3-((4-(((2-((4-fluorobenzyl)carbamoyl)-3-hydroxy-4-oxo-6,7,8,9-tetrahydro-7,10-ethanopyrimido[1,2-a]azepin-10(4H)-yl)amino) (oxo)acetyl)-1-piperazinyl)sulfonyl)-2-thiophenecarboxylate] | < 10 nM
Cc1nn(C)cc1CN(C)C(=O)C(=O)N(C)C12CCC(CC1)Cn1c2nc(C(=O)NCc2ccc(F)cc2)c(O)c1=O [Example 169, N-((1,3-Dimethyl-1H-pyrazol-4-yl)methyl)-N′-(2-((4-fluorobenzyl)carbamoyl)-3-hydroxy-4-oxo-6,7,8,9-tetrahydro-7,10-ethanopyrimido[1,2-a]azepin-10(4H)-yl)-N,N′-dimethylethanediamide] | < 10 nM
CNC(=O)C(=O)NC12CCC(Cn3c1nc(C(=O)NCc1ccc(F)cc1)c(O)c3=O)C2 (centres unmarked) [Example 193, Ethanediamide, N-[2-[[[(4-fluorophenyl)methyl]amino]carbonyl]-6,7,8,9-tetrahydro-3-hydroxy-4-oxo-7,10-methanopyrimido[1,2-a]azepin-10(4H)-yl]-N′-methyl-] | < 10 nM
O=C(NC12CCC(CC1)Cn1c2nc(C(=O)NCc2ccc(F)cc2)c(O)c1=O)C(=O)N1CCOCC1 [Example 60, N-(4-Fluorobenzyl)-3-hydroxy-10-((4-morpholinyl(oxo)acetyl)amino)-4-oxo-4,6,7,8,9,10-hexahydro-7,10-ethanopyrimido[1,2-a]azepine-2-carboxamide] | < 10 nM
CN(C)C(=O)C(=O)NC12CCC(CC1)Cn1c2nc(C(=O)NCc2cccc(-n3cncn3)c2)c(O)c1=O [Example 125, N′-(3-Hydroxy-4-oxo-2-((3-(1H-1,2,4-triazol-1-yl)benzyl)carbamoyl)-6,7,8,9-tetrahydro-7,10-ethanopyrimido[1,2-a]azepin-10(4H)-yl)-N,N-dimethylethanediamide] | < 10 nM
CN(C)C(=O)C(=O)NC12CCC(CC1)Cn1c2nc(C(=O)NCCc2ccc(S(N)(=O)=O)cc2)c(O)c1=O [Example 351] | > 100 nM
CC(=O)NC12CCCC(Cn3c1nc(C(=O)NCc1ccc(F)cc1)c(O)c3=O)C2 (centres unmarked) [Example 187, 7,11-Methano-4H-pyrimido[1,2-a]azocine-2-carboxamide, 11-(acetylamino)-N-[(4-fluorophenyl)methyl]-6,7,8,9,10,11-hexahydro-3-hydroxy-4-oxo-] | < 10 nM
CN(C)C(=O)C(=O)NC12CCC(CC1)Cn1c2nc(C(=O)NCc2ccc(F)cc2S(C)(=O)=O)c(O)c1=O [Example 117, N′-(2-((4-Fluoro-2-(methylsulfonyl)benzyl)carbamoyl)-3-hydroxy-4-oxo-6,7,8,9-tetrahydro-7,10-ethanopyrimido[1,2-a]azepin-10(4H)-yl)-N,N-dimethylethanediamide] | 10 to 100 nM
O=C(NCc1ccc(F)cc1)c1nc2n(c(=O)c1O)CC1CCC2(NS(=O)(=O)c2ccccc2)CC1 [Example 395] | < 10 nM
CC(=O)Nc1cncc(C(=O)NC23CCC(CC2)Cn2c3nc(C(=O)NCc3ccc(F)cc3)c(O)c2=O)c1 [Example 321, 7,10-Ethanopyrimido[1,2-a]azepine-2-carboxamide, 10-[[[5-(acetylamino)-3-pyridinyl]carbonyl]amino]-N-[(4-fluorophenyl)methyl]-4,6,7,8,9,10-hexahydro-3-hydroxy-4-oxo-] | < 10 nM
CS(=O)(=O)NC12CCC(CC1)Cn1c2nc(C(=O)NCc2ccc(F)cc2)c(O)c1=O [Example 21, N-(4-Fluorobenzyl)-3-hydroxy-10-((methylsulfonyl)amino)-4-oxo-4,6,7,8,9,10-hexahydro-7,10-ethanopyrimido[1,2-a]azepine-2-carboxamide] | < 10 nM
O=C(NC12CCC(CC1)Cn1c2nc(C(=O)NCc2ccc(F)cc2)c(O)c1=O)C(=O)N1CC(O)C1 [Example 65, N-(4-Fluorobenzyl)-3-hydroxy-10-(((3-hydroxy-1-azetidinyl) (oxo)acetyl)amino)-4-oxo-4,6,7,8,9,10-hexahydro-7,10-ethanopyrimido[1,2-a]azepine-2-carboxamide] | < 10 nM
CN(CC1CCCO1)C(=O)C(=O)N(C)C12CCC(CC1)Cn1c2nc(C(=O)NCc2ccc(F)cc2)c(O)c1=O (centres unmarked) [Example 165, N-(2-((4-Fluorobenzyl)carbamoyl)-3-hydroxy-4-oxo-6,7,8,9-tetrahydro-7,10-ethanopyrimido[1,2-a]azepin-10(4H)-yl)-N,N′-dimethyl-N′-(tetrahydro-2-furanylmethyl)ethanediamide] | < 10 nM
Cc1cnc(CNC(=O)c2nc3n(c(=O)c2O)CC2CCC3(NC(=O)C(=O)N(C)C)CC2)cn1 [Example 389] | 10 to 100 nM
CN(C)C(=O)C(=O)NC12CCC(CC1)Cn1c2nc(C(=O)NCc2ccc(Cl)cc2Cl)c(O)c1=O [Example 368] | < 10 nM
CC(=O)N1[C@@H]2C[C@@H]2C[C@H]1C(=O)NC12CCC(CC1)Cn1c2nc(C(=O)NCc2ccc(F)cc2)c(O)c1=O [Example 270, 7,10-Ethanopyrimido[1,2-a]azepine-2-carboxamide, 10-[[[(1R,3S,5R)-2-acetyl-2-azabicyclo[3.1.0]hex-3-yl]carbonyl]amino]-N-[(4-fluorophenyl)methyl]-4,6,7,8,9,10-hexahydro-3-hydroxy-4-oxo-] | < 10 nM
CC(=O)N1CCC1C(=O)NC12CCC(CC1)Cn1c2nc(C(=O)NCc2ccc(F)c(C)c2)c(O)c1=O (stereo in doubt) [Example 275, 7,10-Ethanopyrimido[1,2-a]azepine-2-carboxamide, 10-[[[(2S)-1-acetyl-2-azetidinyl]carbonyl]amino]-N-[(4-fluoro-3-methylphenyl)methyl]-4,6,7,8,9,10-hexahydro-3-hydroxy-4-oxo-] | < 10 nM
NC(=S)NC12CCC(CC1)Cn1c2nc(C(=O)NCc2ccc(F)cc2)c(O)c1=O [Example 333, 7,10-Ethanopyrimido[1,2-a]azepine-2-carboxamide, 10-[(aminothioxomethyl)amino]-N-[(4-fluorophenyl)methyl]-4,6,7,8,9,10-hexahydro-3-hydroxy-4-oxo-] | < 10 nM
CN(C)C(=O)C(=O)NC12CCC(CC1)Cn1c2nc(C(=O)NCc2ccc3c(c2)OCO3)c(O)c1=O [Example 362] | < 10 nM
CO[C@H]1C[C@@H](C(=O)NC23CCC(CC2)Cn2c3nc(C(=O)NCc3ccc(F)c(C)c3)c(O)c2=O)N(C(=O)c2cc(C)n(C)n2)C1 [Example 295, 7,10-Ethanopyrimido[1,2-a]azepine-2-carboxamide, 10-[[[(2S,4S)-1-[(1,5-dimethyl-1H-pyrazol-3-yl)carbonyl]-4-methoxy-2-pyrrolidinyl]carbonyl]amino]-N-[(4-fluoro-3-methylphenyl)methyl]-4,6,7,8,9,10-hexahydro-3-hydroxy-4-oxo-] | < 10 nM
CN(C)C(=O)C(=O)NC12CCC(CC1)Cn1c2nc(C(=O)NCc2ccc(F)cc2-c2ncnn2C)c(O)c1=O [Example 107, N′-(2-((4-Fluoro-2-(1-methyl-1H-1,2,4-triazol-5-yl)benzyl)carbamoyl)-3-hydroxy-4-oxo-6,7,8,9-tetrahydro-7,10-ethanopyrimido[1,2-a]azepin-10(4H)-yl)-N,N-dimethylethanediamide] | 10 to 100 nM
Cc1cc(CNC(=O)c2nc3n(c(=O)c2O)CC2CCC3(N(C)C(=O)c3cccnc3)CC2)ccc1F [Example 319, 7,10-Ethanopyrimido[1,2-a]azepine-2-carboxamide, N-[(4-fluoro-3-methylphenyl)methyl]-4,6,7,8,9,10-hexahydro-3-hydroxy-10-[methyl(3-pyridinylcarbonyl)amino]-4-oxo-] | < 10 nM
Cc1cc(CNC(=O)c2nc3n(c(=O)c2O)CC2CCC3(N(C)C(=O)C(=O)N(C)CC3CCCO3)CC2)ccc1F (centres unmarked) [Example 166, N-(2-((4-Fluoro-3-methylbenzyl)carbamoyl)-3-hydroxy-4-oxo-6,7,8,9-tetrahydro-7,10-ethanopyrimido[1,2-a]azepin-10(4H)-yl)-N,N′-dimethyl-N′-(tetrahydro-2-furanylmethyl)ethanediamide] | < 10 nM
CC(=O)N1CCCC[C@H]1C(=O)NC12CCC(CC1)Cn1c2nc(C(=O)NCc2ccc(F)cc2)c(O)c1=O [Example 265, 7,10-Ethanopyrimido[1,2-a]azepine-2-carboxamide, 10-[[[(2S)-1-acetyl-2-piperidinyl]carbonyl]amino]-N-[(4-fluorophenyl)methyl]-4,6,7,8,9,10-hexahydro-3-hydroxy-4-oxo-] | < 10 nM
CNC1c2nc(C(=O)NCc3ccc(F)cc3)c(O)c(=O)n2CC2CCC1C2 (centres unmarked) [Example 9, 7,10-Methano-4H-pyrimido[1,2-a]azocine-2-carboxamide, N-[(4-fluorophenyl)methyl]-6,7,8,9,10,11-hexahydro-3-hydroxy-11-(methylamino)-4-oxo-] | > 100 nM
Cc1cc(C(=O)NC23CCC(CC2)Cn2c3nc(C(=O)NCc3ccc(F)cc3)c(O)c2=O)n(C)n1 [Example 241, 7,10-Ethanopyrimido[1,2-a]azepine-2-carboxamide, 10-[[(1,3-dimethyl-1H-pyrazol-5-yl)carbonyl]amino]-N-[(4-fluorophenyl)methyl]-4,6,7,8,9,10-hexahydro-3-hydroxy-4-oxo-] | < 10 nM
O=C(NC12CCC(CC1)Cn1c2nc(C(=O)NCc2ccc(F)cc2)c(O)c1=O)C(=O)N1CCC[C@@H]1CO [Example 87, N-(4-Fluorobenzyl)-3-hydroxy-10-((((2R)-2-(hydroxymethyl)-1-pyrrolidinyl)(oxo)acetyl)amino)-4-oxo-4,6,7,8,9,10-hexahydro-7,10-ethanopyrimido[1,2-a]azepine-2-carboxamide] | < 10 nM
COc1ccc(CNC(=O)c2nc3n(c(=O)c2O)CC2CCC3(NC(=O)C(=O)N(C)C)CC2)cc1 [Example 375] | < 10 nM
CN1CCC[C@H]1C(=O)NC12CCC(CC1)Cn1c2nc(C(=O)NCc2ccc(F)cc2)c(O)c1=O [Example 258, 7,10-Ethanopyrimido[1,2-a]azepine-2-carboxamide, N-[(4-fluorophenyl)methyl]-4,6,7,8,9,10-hexahydro-3-hydroxy-10-[[[(2S)-1-methyl-2-pyrrolidinyl]carbonyl]amino]-4-oxo-] | 10 to 100 nM
